These results are taken from patent US9902696B2, “1,4-substituted piperidine derivatives” (Cephalon, Inc., priority 2015, dated 2018).

pIC50: −log10 of the molar value. Where a name gives a salt, the structure may show the parent alone.

The target in the first test is T1, recombinant human baculovirus-expressed GST-tagged FASN (Homo sapiens, UniProt P49327).
T1 construct: GST
T1 sequence (P49327 whole entry): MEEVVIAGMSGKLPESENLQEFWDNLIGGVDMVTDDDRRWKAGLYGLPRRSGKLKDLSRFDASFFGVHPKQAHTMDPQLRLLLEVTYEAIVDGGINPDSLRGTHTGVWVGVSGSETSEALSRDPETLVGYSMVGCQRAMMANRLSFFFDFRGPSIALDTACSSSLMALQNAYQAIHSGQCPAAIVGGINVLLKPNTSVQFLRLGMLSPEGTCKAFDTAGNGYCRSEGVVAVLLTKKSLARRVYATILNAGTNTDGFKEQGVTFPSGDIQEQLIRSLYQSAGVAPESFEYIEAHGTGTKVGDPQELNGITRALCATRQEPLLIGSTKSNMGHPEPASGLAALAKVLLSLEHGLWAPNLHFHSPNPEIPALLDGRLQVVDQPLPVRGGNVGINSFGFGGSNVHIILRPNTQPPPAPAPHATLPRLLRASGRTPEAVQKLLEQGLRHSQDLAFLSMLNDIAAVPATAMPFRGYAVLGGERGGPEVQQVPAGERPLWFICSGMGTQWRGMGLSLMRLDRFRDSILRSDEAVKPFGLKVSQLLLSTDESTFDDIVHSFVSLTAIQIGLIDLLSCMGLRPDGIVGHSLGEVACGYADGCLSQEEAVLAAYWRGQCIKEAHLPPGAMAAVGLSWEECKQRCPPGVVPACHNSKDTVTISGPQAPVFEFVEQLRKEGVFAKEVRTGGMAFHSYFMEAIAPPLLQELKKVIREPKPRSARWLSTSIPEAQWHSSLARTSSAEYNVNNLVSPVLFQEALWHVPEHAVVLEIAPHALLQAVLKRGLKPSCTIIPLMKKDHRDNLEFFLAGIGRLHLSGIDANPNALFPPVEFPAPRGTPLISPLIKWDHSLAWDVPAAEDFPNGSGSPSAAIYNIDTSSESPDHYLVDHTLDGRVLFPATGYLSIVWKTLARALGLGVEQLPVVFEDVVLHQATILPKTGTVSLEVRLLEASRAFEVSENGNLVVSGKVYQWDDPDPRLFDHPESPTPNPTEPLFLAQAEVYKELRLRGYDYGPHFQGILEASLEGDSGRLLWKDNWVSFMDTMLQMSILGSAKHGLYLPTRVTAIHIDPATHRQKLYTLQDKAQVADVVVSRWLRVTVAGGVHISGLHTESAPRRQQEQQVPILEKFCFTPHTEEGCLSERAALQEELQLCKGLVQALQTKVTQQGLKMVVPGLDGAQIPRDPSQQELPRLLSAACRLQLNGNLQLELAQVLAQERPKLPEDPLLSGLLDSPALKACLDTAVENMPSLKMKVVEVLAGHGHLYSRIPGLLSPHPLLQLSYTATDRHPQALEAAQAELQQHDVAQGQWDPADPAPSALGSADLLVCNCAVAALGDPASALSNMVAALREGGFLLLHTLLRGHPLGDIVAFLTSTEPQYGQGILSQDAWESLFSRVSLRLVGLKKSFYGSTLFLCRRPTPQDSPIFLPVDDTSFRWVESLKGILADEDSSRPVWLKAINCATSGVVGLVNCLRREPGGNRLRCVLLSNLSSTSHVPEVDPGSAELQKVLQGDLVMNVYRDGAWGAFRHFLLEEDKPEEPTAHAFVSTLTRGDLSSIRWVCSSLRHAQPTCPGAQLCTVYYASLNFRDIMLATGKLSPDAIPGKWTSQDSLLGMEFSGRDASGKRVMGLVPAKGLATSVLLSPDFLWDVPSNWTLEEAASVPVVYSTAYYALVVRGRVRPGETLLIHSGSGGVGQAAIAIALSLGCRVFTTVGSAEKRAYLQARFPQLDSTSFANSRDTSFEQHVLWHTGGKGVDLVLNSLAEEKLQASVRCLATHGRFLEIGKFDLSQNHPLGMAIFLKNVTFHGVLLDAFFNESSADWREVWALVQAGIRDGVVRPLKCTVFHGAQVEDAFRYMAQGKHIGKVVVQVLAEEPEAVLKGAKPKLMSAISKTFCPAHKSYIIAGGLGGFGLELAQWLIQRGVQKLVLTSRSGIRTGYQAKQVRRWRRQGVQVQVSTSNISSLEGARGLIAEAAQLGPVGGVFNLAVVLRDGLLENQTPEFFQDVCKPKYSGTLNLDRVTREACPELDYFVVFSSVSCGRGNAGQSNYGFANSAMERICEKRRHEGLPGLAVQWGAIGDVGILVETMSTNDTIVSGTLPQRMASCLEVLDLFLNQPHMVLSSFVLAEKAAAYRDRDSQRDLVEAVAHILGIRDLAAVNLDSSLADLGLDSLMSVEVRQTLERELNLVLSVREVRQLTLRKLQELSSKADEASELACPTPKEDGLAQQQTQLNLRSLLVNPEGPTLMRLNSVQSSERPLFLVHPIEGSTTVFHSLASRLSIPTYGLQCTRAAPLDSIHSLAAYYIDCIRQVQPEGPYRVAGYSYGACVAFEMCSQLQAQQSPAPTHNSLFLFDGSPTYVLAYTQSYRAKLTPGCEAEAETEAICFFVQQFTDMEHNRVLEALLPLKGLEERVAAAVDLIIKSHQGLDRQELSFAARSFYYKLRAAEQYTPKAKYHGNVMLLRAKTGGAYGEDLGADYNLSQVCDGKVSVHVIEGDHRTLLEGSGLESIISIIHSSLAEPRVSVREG
The test is described as follows: FASN enzyme activity assay, fluorescence-based detection of CoA with CPM. It counts as biochemical. The note with it: 5 nM FASN, 150 μM NADPH, 10 μM acetyl-CoA, 25 μM malonyl-CoA, 90 minutes incubation; read-out: IC50 data for Additional Compounds of Formulae I-V(a): Activity. An excerpt:
FASN Enzyme activity may be determined by detecting coenzyme A (CoA), a product of FASN-catalyzed synthesis of palmitate from acetyl-CoA and malonyl-CoA with NADPH as a cofactor. The assay is fluorescence-based and measures the interaction of free CoA with 7-diethylamino-3-(4′-malemimidylphenyl)-4-methylcoumarin (CPM; Life Technologies, CA) as described in Chung et al (2008). The coumarin derivative CPM contains a thiol-reactive maleimide that becomes fluorescent upon interaction with the sulfhydryl group of CoA.
For the example compounds described herein, the reaction was performed in 384-well low volume non-binding plates (Corning, N.Y.) using recombinant human baculovirus-expressed GST-tagged FASN. The 20-μL assay mixture contained 50 mM HEPES (pH 7.5), 5 nM FASN, 150 μM NADPH (Sigma, St. Louis, Mo.), 10 μM acetyl-CoA (Sigma), 25 μM malonyl-CoA (Sigma) and test compound [diluted in dimethyl sulfoxide (DMSO); 0.5% DMSO final in assay after 100 nL addition]. See, Chung et al.; “A fluorescence-based thiol quantification assay for ultra-high-throughput screening for inhibitors of coenzyme A production,” Assay Drug Dev Tech 2008; 6:361-374.
The reaction was initiated by adding malonyl-CoA, followed by incubation for 90 minutes at […]. A stock solution of the CPM reagent was prepared in DMSO at […] and stored at […]. To detect CoA produced in the FASN reaction, the CPM stock was diluted to […] in 70% ethanol and added at 4 μL/well to the assay plate. The reaction mixture was then incubated for 30 minutes. Fluorescence was measured using the EnVision™ 2102 multi-label plate reader (PerkinElmer, Waltham, Mass.) utilizing a general dual mirror, a 390 nm excitation filter and a 530 nm emission filter. Data analysis was performed using ActivityBase (IDBS, Guilford, UK). IC50 values were calculated by plotting the percent inhibition versus log 10 of the concentration of the compound, and fitting to the nonlinear regression sigmoidal dose-response (variable slope) equation in XLFit (IDBS).
As to `Cc1c(-c2ccc(OC3CCN(C(=O)OC4CCOC4)CC3)cc2)ccc2cccnc12` (stereo not shown) [Example 559, Tetrahydrofuran-3-yl 4-[4-(8-methyl-7-quinolyl)phenoxy]piperidine-1-carboxylate], the pIC50 was 7.00 to 9.00.

With `Cc1c(-c2ccc(OC3CCN(C(=O)NCC(C)C)CC3)cc2)ccc2nccn12` [Example 593, N-Isobutyl-4-[4-(5-methylimidazo[1,2-a]pyridin-6-yl)phenoxy]piperidine-1-carboxamide], the pIC50 was 5.00 to 6.00.

Take `CC(=O)OCC(=O)N1CCC(Oc2ccc(-c3ccc4cccnc4c3C)cc2)CC1` [Example 625, [2-[4-[4-(8-Methyl-7-quinolyl)phenoxy]-1-piperidyl]-2-oxo-ethyl]acetate]: the pIC50 is 7.00 to 9.00.

`Cc1c(-c2ccc(OC3CCN(C(=O)[C@H]4CCCN4C)CC3)cc2)ccc2cccnc12` [Example 616, [(2R)-1-Methylpyrrolidin-2-yl]-[4-[4-(8-methyl-7-quinolyl)phenoxy]-1-piperidyl]methanone]: the pIC50 is 5.00 to 6.00.

Consider `Cc1c(-c2ccc(OC3CCN(C(=O)NO)CC3)cc2)ccc2cccnc12` [Example 554, 4-[4-(8-Methyl-7-quinolyl)phenoxy]piperidine-1-carbohydroxamic acid, HCl], for which the pIC50 is 5.00 to 6.00.

The same test, now with this note: 5 nM FASN, 150 μM NADPH, 10 μM acetyl-CoA, 25 μM malonyl-CoA, 90 minutes incubation; read-out: IC50 data for Compounds of Formulae I-V/V(a): Activity.
Regarding `CCC(=O)N1CCC(Oc2ccc(-c3ccc4cccnc4c3)cc2Cl)CC1` [Example 194, 1-[4-(2-Chloro-4-quinolin-7-yl-phenoxy)-piperidin-1-yl]-propan-1-one], the pIC50 is 5.00 to 6.00.

In the case of `Cc1c(-c2ccc(OC3CCN(C(=O)NO)CC3)cc2)cnc2ccccc12` [Example 87, 4-[4-(4-Methylquinolin-3-yl)-phenoxy]-piperidine-1-carboxylic acid hydroxyamide], the pIC50 was 5.00 to 6.00.

As for `O=C(N1CCC(Oc2ccc(-c3ccc4cncn4c3)cc2)CC1)C1(O)CC1` [Example 302, (1-Hydroxycyclopropyl)-[4-(4-imidazo[1,5-a]pyridin-6-yl-phenoxy)-piperidin-1-yl]-methanone], the pIC50 was 7.00 to 9.00.

On to `O=C(C1CCC1)N1CCC(Oc2ccc(-c3ccc(Oc4ccccc4)nc3)cc2)CC1` [Example 391, Cyclobutyl-{4-[4-(6-phenoxy-pyridin-3-yl)-phenoxy]-piperidin-1-yl}-methanone], for which the pIC50 is 5.00 to 6.00.

`CC1(C(=O)N2CCC(Oc3ccc(-c4cnc5ccccc5c4)cc3)CC2)CCCO1` (stereo not shown) [Example 115, (2-Methyltetrahydrofuran-2-yl)-[4-(4-quinolin-3-yl-phenoxy)-piperidin-1-yl]-methanone, HCl]: the pIC50 is 6.00 to 7.00.

Turning to `O=C([C@H]1CCCO1)N1CCC(Oc2ccc(-c3ccc4c(C5CC5)nccc4c3)cc2)CC1` [Example 440, {4-[4-(1-Cyclopropylisoquinolin-6-yl)-phenoxy]-piperidin-1-yl}-(R)-tetrahydrofuran-2-yl-methanone], the pIC50 was 7.00 to 9.00.

On to `CCC(=O)N1CCC(Oc2ccc(-c3cc4ccccc4nc3OC)cc2)CC1` [Example 18, 1-{4-[4-(2-Methoxyquinolin-3-yl)-phenoxy]-piperidin-1-yl}-propan-1-one], for which the pIC50 was 6.00 to 7.00.

For `Cc1cnc(C)c2ccc(-c3ccc(OC4CCN(C(=O)C5CC5)CC4)cc3)cc12` [Example 470, Cyclopropyl-[4-[4-(1,4-dimethyl-6-isoquinolyl)phenoxy]-1-piperidyl]methanone, HCl], the pIC50 is 6.00 to 7.00.

As to `CCC(=O)N1CC[C@H](Oc2ccc(-c3ccc4cccnc4c3C)cc2)[C@H](F)C1` (relative stereo) [Example 367, 1-{cis-3-Fluoro-4-[4-(8-methylquinolin-7-yl)-phenoxy]-piperidin-1-yl}-propan-1-one, HCl], the pIC50 is 5.00 to 6.00.

Turning to `CC(C)C(=O)N1CCC(Oc2ccc(-c3ccc4occc4c3)cc2)CC1` [Example 9, 1-[4-(4-Benzofuran-5-yl-phenoxy)-piperidin-1-yl]-2-methyl-propan-1-one], the pIC50 was 5.00 to 6.00.

Regarding `CC(C)(C)OC(=O)N1CCC(Oc2ccc(-c3ccc(C#N)cc3)cc2)CC1` [Example 490, 4-(4′-Cyano-biphenyl-4-yloxy)-piperidine-1-carboxylic acid t-butyl ester], the pIC50 is 5.00 to 6.00.

With `COc1nccc2cc(-c3ccc(OC4CCN(C(=O)C5CCC5)CC4)cc3)ccc12` [Example 434, Cyclobutyl-{4-[4-(1-methoxyisoquinolin-6-yl)-phenoxy]-piperidin-1-yl}-methanone], the pIC50 was 6.00 to 7.00.

Consider `CONC(=O)N1CCC(Oc2ccc(-c3ccc4cccnc4c3OC)cc2)CC1` [Example 131, N-Methoxy-4-[4-(8-methoxy-7-quinolyl)phenoxy]piperidine-1-carboxamide, HCl], for which the pIC50 is 7.00 to 9.00.

For the compound `O=C(C1CC1)N1CCC(Oc2ccc(-c3ccc(Nc4ccccc4)nc3)cc2)CC1` [Example 393, Cyclopropyl-{4-[4-(6-phenylaminopyridin-3-yl)-phenoxy]-piperidin-1-yl}-methanone, TFA salt], the pIC50 was 5.00 to 6.00.

Regarding `Cc1c(-c2ccc(OC3CCN(C(=O)C4CC4)CC3)cc2)ccc2nccn12` [Example 287, Cyclopropyl-{4-[4-(5-methyl-imidazo[1,2-a]pyridin-6-yl)-phenoxy]-piperidin-1-yl}-methanone], the pIC50 was 6.00 to 7.00.

As to `O=C([C@H]1CCCO1)N1CCC(Oc2ccc(-c3cnc4sccc4c3)cc2)CC1` [Example 254, (R)-Tetrahydrofuran-2-yl-[4-(4-thieno[2,3-b]pyridin-5-yl-phenoxy)-piperidin-1-yl]-methanone, TFA salt], the pIC50 was 7.00 to 9.00.

Regarding `O=C(C1CC1)N1CCC(Oc2ccc(-c3cnc4ccccc4n3)cc2)CC1` [Example 67, Cyclopropyl-[4-(4-quinoxalin-2-yl-phenoxy)-piperidin-1-yl]-methanone], the pIC50 was 6.00 to 7.00.

Turning to `CCC(=O)N1CCC(Oc2ccc(-c3cnc4c(C)cccc4c3)cc2)CC1` [Example 486, 1-{4-[4-(8-Methylquinolin-3-yl)-phenoxy]-piperidin-1-yl}-propan-1-one, HCl], the pIC50 is 7.00 to 9.00.

For the compound `CCC(=O)N1CCC(Oc2ccc(-c3cnc4ccccc4c3)c(C)c2)CC1` [Example 207, 1-[4-(3-Methyl-4-quinolin-3-yl-phenoxy)-piperidin-1-yl]-propan-1-one], the pIC50 is 6.00 to 7.00.

Regarding `Cc1cccc2cc(-c3ccc(OC4CCN(C(=O)[C@H]5CCCO5)CC4)cc3)cnc12` [Example 488, {4-[4-(8-Methylquinolin-3-yl)-phenoxy]-piperidin-1-yl}-(R)-tetrahydro-furan-2-yl-methanone], the pIC50 was 7.00 to 9.00.

Consider `CCC(=O)N1CCC(Oc2ccc(-c3ccc4cccnc4c3C)cc2)CC1C` (mixture of isomers) [Example 364, 1-{2-Methyl-4-[4-(8-methylquinolin-7-yl)-phenoxy]-piperidin-1-yl}-propan-1-one, HCl], for which the pIC50 was 6.00 to 7.00.

For the compound `CC(C)(C)OC(=O)N1CCC(Oc2ccc(-c3cnc4ccccc4c3)cc2F)CC1` [Example 5, 4-(2-Fluoro-4-quinolin-3-yl-phenox)piperidine-1-carboxylic acid t-butyl ester], the pIC50 is 5.00 to 6.00.

For the compound `Cc1c(-c2ccc(OC3CCN(C(=O)C4(C(F)(F)F)CC4)CC3)cc2)ccc2cccnc12` [Example 315, {4-[4-(8-Methylquinolin-7-yl)-phenoxy]-piperidin-1-yl}-(1-trifluoro-methylcyclopropyl)-methanone], the pIC50 is 5.00 to 6.00.
